Measurements taken from patent publication US10597388B2, “Pyridazinone herbicides” (FMC CORPORATION, priority 2014, dated 2020).

Columns and labels:
Assay type in all cases: in vivo
kochia (Kochia scoparia) = assay: Test C greenhouse herbicide test, postemergence
Outline: (§1)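 Steps: pot plants in peat-based medium; spray postemergence at 1- to 4-leaf stage; hold in greenhouse 13 to 15 d; score visually against controls from 0 (no effect) to 100 (complete control).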

[1] = test system: oat, wild (wild oat, Avena fatua); assay: Test C greenhouse herbicide test, postemergence
Outline: as §1

[2] = test system: morningglory (Ipomoea coccinea); assay: Test C greenhouse herbicide test, pre- and postemergence
Description: (§2) Seeds of plant species selected from blackgrass (Alopecurus myosuroides), ryegrass, Italian (Italian ryegrass, Lolium multiflorum), wheat (winter wheat, Triticum aestivum), galium (catchweed bedstraw, Galium aparine), corn (Zea mays), large crabgrass, large (large crabgrass, Digitaria sanguinalis), foxtail, giant (giant foxtail, Setaria faberii), johnsongrass (Sorghum halepense), lambsquarters (Chenopodium album), morningglory (Ipomoea coccinea), nutsedge, yellow (yellow nutsedge, Cyperus esculentus), pigweed (Amaranthus retroflexus), ragweed (common ragweed, Ambrosia elatior), soybean (Glycine max), barnyardgrass (Echinochloa crus-galli), oilseed rape (Brassica napus), waterhemp (common waterhemp, Amaranthus rudis), and velvetleaf (Abutilon theophrasti) were planted into a blend of loam soil and sand and treated preemergence with test chemicals formulated in a non-phytotoxic solvent mixture which included a surfactant.
(§3) At the same time, plants selected from these crop and weed species and also chickweed (common chickweed, Stellaria media), kochia (Kochia scoparia), and oat, wild (wild oat, Avena fatua), were planted in pots containing Redi-Earth® planting medium (Scotts Company, 14111 Scottslawn Road, Marysville, Ohio 43041) comprising spaghnum peat moss, vermiculite, wetting agent and starter nutrients and treated with postemergence applications of test chemicals formulated in the same manner. Plants ranged in height from 2 to 18 cm (1- to 4-leaf stage) for postemergence treatments. Treated plants and controls were maintained in a greenhouse for 13 to 15 d, after which time all species were compared to controls and visually evaluated. Plant response ratings, summarized in Table C, are based on a scale of 0 to 100 where 0 is no effect and 100 is complete control. A dash (-) response means no test result.

[3] = test system: velvetleaf (Abutilon theophrasti); assay: as above
Description: as §2, §3

[4] = test system: pigweed (Amaranthus retroflexus); assay: as above
Description: as §2, §3

[5] = test system: foxtail, giant (giant foxtail, Setaria faberii); assay: as above
Description: as §2, §3

[6] = test system: johnsongrass (Sorghum halepense); assay: as above
Description: as §2, §3

[7] = test system: ragweed (common ragweed, Ambrosia elatior); assay: as above
Description: as §2, §3

[8] = test system: oilseed rape (Brassica napus); assay: as above
Description: as §2, §3

[9] = test system: barnyardgrass (Echinochloa crus-galli); assay: as above
Description: as §2, §3

[10] = test system: blackgrass (Alopecurus myosuroides); assay: as above
Description: as §2, §3

[11] = test system: crabgrass, large (large crabgrass, Digitaria sanguinalis); assay: as above
Description: as §2, §3

[12] = test system: waterhemp (common waterhemp, Amaranthus rudis); assay: as above
Description: as §2, §3

[13] = test system: wheat (winter wheat, Triticum aestivum); assay: as above
Description: as §2, §3

soybean (Glycine max) = assay: as above
Description: as §2, §3

corn (Zea mays) = assay: as above
Description: as §2, §3

[14] = test system: galium (catchweed bedstraw, Galium aparine); assay: as above
Description: as §2, §3

[15] = Postemergence, 16 g ai/ha, scale 0 to 100 (0 no effect, 100 complete control)
[16] = Postemergence, 31 g ai/ha, 0 to 100 scale (0 no effect, 100 complete control)
[17] = Postemergence, 125 g ai/ha, scale 0 to 100, 0 is no effect, 100 is complete control
[18] = postemergence, 62 g ai/ha, scale 0 to 100, 0 no effect, 100 complete control

COc1ccc2ccccc2c1-c1c(O)c(C)nn(C)c1=O [Compound 40]
5: Plant response rating, Oat, Wild [1, 15] | Plant response rating, Morningglory [2, 15] | Plant response rating, Velvetleaf [3, 15] | Velvetleaf plant response rating [3, 16] | Plant response rating, Foxtail, Giant [5, 15] | Foxtail, Giant plant response rating [5, 16] | Plant response rating, Johnsongrass [6, 17] | Johnsongrass plant response rating [6, 18] | Oilseed Rape plant response rating [8, 16] | Plant response rating, Oilseed Rape [8, 17] | Plant response rating, Barnyardgrass [9, 15] | Barnyardgrass plant response rating [9, 16] | Plant response rating, Blackgrass [10, 15] | Blackgrass plant response rating [10, 16] | Plant response rating, Crabgrass, Large [11, 15] | Crabgrass, Large plant response rating [11, 16] | Crabgrass, Large plant response rating [11, 18] | Soybean plant response rating (soybean (Glycine max); [16])
10: Velvetleaf plant response rating [3, 18] | Plant response rating, Crabgrass, Large [11, 17] | Wheat plant response rating [13, 16] | Plant response rating, Wheat [13, 17] | Wheat plant response rating [13, 18]
45: Ragweed plant response rating [7, 16] | Plant response rating, Blackgrass [10, 17]
70: Kochia plant response rating (kochia (Kochia scoparia); [16])
50: Oat, Wild plant response rating [1, 18]
55: Morningglory plant response rating [2, 16]
0: Plant response rating, Kochia (kochia (Kochia scoparia); [17]) | Plant response rating, Johnsongrass [6, 15] | Johnsongrass plant response rating [6, 16] | Plant response rating, Oilseed Rape [8, 15] | Plant response rating, Wheat [13, 15] | Plant response rating, Corn (corn (Zea mays); [15]) | Corn plant response rating (corn (Zea mays); [16]) | Corn plant response rating (corn (Zea mays); [18])
20: Plant response rating, Kochia (kochia (Kochia scoparia); [15]) | Plant response rating, Velvetleaf [3, 17] | Plant response rating, Foxtail, Giant [5, 17] | Plant response rating, Waterhemp [12, 15] | Plant response rating, Corn (corn (Zea mays); [17])
90: Plant response rating, Galium [14, 17]
30: Oilseed Rape plant response rating [8, 18] | Plant response rating, Soybean (soybean (Glycine max); [17]) | Plant response rating, Galium [14, 15]
75: Ragweed plant response rating [7, 18]
35: Oat, Wild plant response rating [1, 16] | Pigweed plant response rating [4, 16] | Plant response rating, Soybean (soybean (Glycine max); [15])
60: Plant response rating, Oat, Wild [1, 17] | Soybean plant response rating (soybean (Glycine max); [18])
80: Kochia plant response rating (kochia (Kochia scoparia); [18]) | Plant response rating, Morningglory [2, 17] | Plant response rating, Waterhemp [12, 17] | Galium plant response rating [14, 16]
65: Morningglory plant response rating [2, 18] | Pigweed plant response rating [4, 18] | Waterhemp plant response rating [12, 16] | Waterhemp plant response rating [12, 18]
85: Plant response rating, Pigweed [4, 17] | Plant response rating, Ragweed [7, 17] | Galium plant response rating [14, 18]
25: Plant response rating, Ragweed [7, 15] | Plant response rating, Barnyardgrass [9, 17]
15: Plant response rating, Pigweed [4, 15] | Foxtail, Giant plant response rating [5, 18] | Barnyardgrass plant response rating [9, 18] | Blackgrass plant response rating [10, 18]
